Source: patent publication US5171676A, “Method of introducing hydroxyl groups into artemisinin and its derivatives” (priority 1991, dated 1992)
Values after ≈ are worked out from the molar mass of the structure shown. Read-outs that look alike come from different tables or passages of the source.

Key:
[1] = system: Plasmodium falciparum, malarial strain W2; assay: Antimalarial activity in vitro, growth inhibition, strain W2; format: cell-based; details: for IC50: Plasmodium falciparum
Experimental: (§1) The antimalarial activity of various hydroxylated artemisinin derivatives obtained via the present method was determined by Drs. S. Anderson and W.K. Milhous at the Division of Experimental Therapeutics, Walter Reed Army Institute of Research, Washington, D.C.
(§2) The malarial strains employed in this survey include D6, W2, and GA3. In Table 2, below, the -pharmacological data are reported as IC-50, indicating the concentration, in ng per ml, of compound required to inhibit growth of the parasite at the 50% level.

Plasmodium falciparum = assay: Antimalarial activity against the strains tested (summary of in vitro tests); format: cell-based; details: in words
Experimental: as §1, §2

[2] = system: Plasmodium falciparum, malarial strain D6; assay: Antimalarial activity in vitro, growth inhibition, strain D6; format: cell-based; details: for IC50: Plasmodium falciparum
Experimental: as §1, §2

[3] = system: Plasmodium falciparum, malarial strain GA3; assay: Antimalarial activity in vitro, growth inhibition, strain GA3; format: cell-based; details: 50% inhibition of parasite growth; for IC50: Plasmodium falciparum
Experimental: as §1, §2

P. falciparum = details: cited from earlier work
Falciparum malaria = details: cited from earlier work; for reversal of chloroquine-resistance: with chloroquine, reports by Van Dyke et al.
[4] = strain D6, in vitro, 50% inhibition of parasite growth, read-out: IC-50
[5] = strain W2, in vitro, 50% inhibition of parasite growth, read-out: IC-50

IC50 [2, 4] [ng/mL] | IC50 [1, 5] [ng/mL] | IC50 [3] [ng/mL] | Compound | antimalarial activity (Plasmodium falciparum) | also measured
– | – | – | CCOC1OC2OC3(C)CCC4C(C)C(O)CC(C1C)C24OO3 (stereo not drawn) [7β-Hydroxyarteether] | exhibit antimalarial activity against the strains tested | IC-50 ([1]; strain W2, in vitro, 50% inhibition of parasite growth): 2.78 ng/mL; IC-50 ([2]; strain D6, in vitro, 50% inhibition of parasite growth): 12.6 ng/mL; IC-50 [3]: 8.83 ng/mL
2 (≈ 4.77 nM) | – | – | C[C@H]1C(OC(=O)Nc2ccccc2)O[C@@H]2O[C@@]3(C)CC[C@H]4[C@H](CO)CC[C@@H]1[C@@]24OO3 (stereo partly shown) [14-Hydroxy-N-phenylcarbamoyl dihydroartemisinin] | exhibit antimalarial activity against the strains tested | –
12.6 (≈ 38.4 nM) | 2.77 (≈ 8.43 nM) | 8.18 (≈ 24.9 nM) | CCOC1OC2OC3(C)CCC4C(CO)CCC(C1C)C24OO3 (stereo not shown) [14-Hydroxyarteether] | exhibit antimalarial activity against the strains tested | –
0.73 (≈ 2.34 nM) | 0.28 (≈ 0.896 nM) | 0.498 (≈ 1.59 nM) | CCOC1OC2OC3(C)CCC4C(C)CCC(C1C)C24OO3 (stereo not shown) [Arteether, ethyl ether of dihydroartemisinin] | – | –
– | – | – | CCN(CC)CCCC(C)Nc1ccnc2cc(Cl)ccc12 (stereo not shown) [Chloroquine, chloroquine] | – | IC50 ([1]; W2): 41.4 ng/mL (≈ 129 nM); IC50 ([2]; D6): 6.63 ng/mL (≈ 20.7 nM)
– | – | – | COc1ccc2cc1Oc1ccc(cc1)C[C@H]1c3cc(c(OC)cc3CCN1C)Oc1c(OC)c(OC)cc3c1[C@H](C2)N(C)CC3 [tetrandrine] | – | synergy with antimalarial drugs (Falciparum malaria; Van Dyke): act in a synergistic manner to greatly reduce the quantities of drugs required for activity; reversal of chloroquine-resistance (Falciparum malaria): reverse the chloroquine-resistance in Falciparum malaria
– | – | – | COc1ccc(CCN(C)CCCC(C#N)(c2ccc(OC)c(OC)c2)C(C)C)cc1OC (stereo not shown) [verapamil] | – | synergy with antimalarial drugs (Falciparum malaria): act in a synergistic manner to greatly reduce the quantities of drugs required for activity; reversal of chloroquine-resistance (Falciparum malaria): reverse the chloroquine-resistance in Falciparum malaria

Compound | IC50 [2, 4] [ng/mL] | IC50 [1, 5] [ng/mL] | IC50 [3] [ng/mL] | antimalarial activity (Plasmodium falciparum) | also measured
C[C@@H]1CC[C@H]2[C@@H](C)C(=O)O[C@@H]3O[C@@]4(C)CC[C@@H]1[C@]32OO4 [Artemisinin, artemisinin] | 0.97 (≈ 3.44 nM) | 0.79 (≈ 2.8 nM) | 1.58 (≈ 5.6 nM) | – | resistance development (P. falciparum; P. falciparum): P. falciparum has not developed resistance; speed of action (P. falciparum): act rapidly; toxicity (P. falciparum): relatively non-toxic
